Laboratory results as given in patent publication US20090023646A1, “GHRH analogues” (Centre Hospitalier de L'Universite de Montreal (CHUM), priority 2002, published 2009).
Square brackets hold non-standard residues; d marks the D form. Peptide text beside a SMILES is read from it.

Columns and labels:
[1] = In vitro proteolysis assay in rat serum; format: in vitro ADME; conditions: mean±SEM
Procedure: Proteolysis was stopped by adding 800 μl of ice-cold stop buffer (potassium-phosphate buffer, acidified to pH 0.8 with trifluoroacetic acid (TFA) and boiling 5 min (rat serum only). After centrifugation (12000 g, 5 min, 4° C.) (rat serum only), serum-peptide mixtures were passed through a conditioned Sep-Pak C-18 cartridge to extract native GHRH or a GHRH analogue residual concentrations from serum proteins. The native GHRH or the analogue was eluted in 2 ml of 50% acetonitrile-0.01% TFA/50% 0.01% aqueous TFA. Two hundred μl of extracted peptide, representing 1 μg of GHRH or analogue at time 0, was quantified by analytical HPLC, using one μ-Bondapak C18 column (10 μm particle size, 0.39×15 cm) (rat serum) or two C18 column in series (human serum and plasma) and a binary solvent system composed of NaClO4 0.01 M, pH 2.5 and acetonitrile. A linear gradient from 30 to 60% acetonitrile over 45 min (rat serum) or 30 to 50% (human serum and plasma) was used.

human GHRH receptor = target: T1, human GHRH receptor (Homo sapiens, UniProt Q02643); experiment: Competitive 125I-GHRH binding assay in BHK cell membrane preparations expressing the human GHRH receptor
T1 construct: expressed in transfected cells; host or cells: BHK (baby hamster kidney) 570 cells
T1 sequence (Q02643 23-423): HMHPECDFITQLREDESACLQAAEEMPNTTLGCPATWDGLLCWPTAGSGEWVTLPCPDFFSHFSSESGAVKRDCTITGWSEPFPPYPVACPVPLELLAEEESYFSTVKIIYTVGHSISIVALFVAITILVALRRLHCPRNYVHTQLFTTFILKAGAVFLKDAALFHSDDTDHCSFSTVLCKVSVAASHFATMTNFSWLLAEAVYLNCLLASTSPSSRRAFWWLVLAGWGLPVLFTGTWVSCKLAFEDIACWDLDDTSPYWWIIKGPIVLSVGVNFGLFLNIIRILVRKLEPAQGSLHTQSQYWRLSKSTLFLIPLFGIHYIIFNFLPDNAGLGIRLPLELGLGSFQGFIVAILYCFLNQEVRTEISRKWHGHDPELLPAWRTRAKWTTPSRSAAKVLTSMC
Procedure: Non specific binding was determined in presence of 1 μM hGHRH(1-29)NH2. Incubation was carried out at equilibrium (23° C., 60 min) and stopped by centrifugation (12,000 g, 5 min, at 4° C.). The radioactivity content in pellets was determined by gamma counting. The affinity of hGHRH(1-29) NH2 was tested in each experiment to assess the validity of the assay and determine the relative affinity of the analogues.
Values represent the mean±SEM of 3 experiments performed in triplicate for the analogues and the mean±SEM of 2 experiments performed in triplicate for hGHRH(1-44) NH2.
For the binding assay results presented in Tables 8 to 11, values represent the mean±SEM of 8 independent experiments performed in triplicate for the analogues and the mean±SEM of 4 experiments performed in triplicate for hGHRH(1-29)NH2. […] The relative affinity was obtained by taking the ratio IC50 of hGHRH (1-29)-NH2/IC50 analogue.

- Residual concentration ([1]; incubation 0 min): 100 ± 0 % of initial concentration
- remaining at 8 min, 15 µM ([1]; male, Sprague Dawley, diluted 1/100, incubation 8 min, read-out: Residual concentration): 92 ± 5%
- remaining at 0.25 h, 15 µM ([1]; male, Sprague Dawley, diluted 1/100, incubation 15 min, read-out: Residual concentration): 82 ± 6%
- remaining at 0.5 h, 15 µM ([1]; male, Sprague Dawley, diluted 1/100, incubation 30 min, read-out: Residual concentration): 74 ± 7%
- remaining at 1 h, 15 µM ([1]; male, Sprague Dawley, diluted 1/100, incubation 60 min, read-out: Residual concentration): 50 ± 3%
- IC50 (human GHRH receptor; Table 7, mean±SEM of 3 experiments (analogue) or 2 experiments (hGHRH(1-44)NH2) in triplicate): no significant difference was observed
- Relative binding affinity (R1) in comparison with hGHRH(1-29)NH2 in BHK cells expressing the hGHRH receptor (human GHRH receptor; ratio IC50 of hGHRH(1-29)-NH2/IC50 analogue, mean±SEM): 939 ± 249
Structure (SMILES): CC[C@H](C)[C@H](NC(=O)[C@H](C)NC(=O)[C@H](CC(=O)O)NC(=O)[C@@H](C)NC(=O)[C@@H](N)Cc1ccc(O)cc1)C(=O)N[C@@H](Cc1ccccc1)C(=O)N[C@H](C(=O)N[C@@H](CC(N)=O)C(=O)N[C@@H](CO)C(=O)N[C@H](Cc1ccc(O)cc1)C(=O)N[C@@H](CCCNC(=N)N)C(=O)N[C@@H](CCCCN)C(=O)N[C@H](C(=O)N[C@@H](CC(C)C)C(=O)N[C@H](C)C(=O)N[C@@H](CCC(N)=O)C(=O)N[C@@H](CC(C)C)C(=O)N[C@@H](CO)C(=O)N[C@@H](C)C(=O)N[C@@H](CCCNC(=N)N)C(=O)N[C@@H](CCCCN)C(=O)N[C@@H](CCCCN)C(=O)N[C@@H](CC(C)C)C(=O)N[C@@H](CCC(N)=O)C(=O)N[C@@H](CC(=O)O)C(=O)N[C@H](C(=O)N[C@@H](CCSC)C(=O)N[C@@H](CO)C(=O)N[C@@H](CCCNC(=N)N)C(N)=O)[C@@H](C)CC)C(C)C)[C@@H](C)O [GHRH analogue #5, [D-Ala^2, D-Tyr^10, D-Ala^15, Lys^22] hGHRH(1-29)-NH2] (H-Y[dA]DAIFTNS[dY]RKVL[dA]QLSARKKLQDIMSR-NH2)
- Residual concentration ([1]; incubation 60 min): significantly higher than that of either GHRH analogue 1, 2 or 3
